# In publication PMC7252906 (Toxicology and applied pharmacology, 2019):
# Several values for one entry are separate records, joined by “and”; a condition that tells them apart may be missing. Identical values can stand only once. Like-named read-outs stand apart in the source and are kept apart here.
# Experiments:
# [1] = Radiochemical HPLC profiling of urine after [^14C]DMAE; conditions: Oral
# [2] = Radiochemical HPLC profiling of urine after [^14C]DMAE; assay type: in vivo, Harlan Sprague Dawley rats
# [3] = male Wistar rats, IV 11 mg/kg, 6 minutes post-dosing; ref Dormard et al. (1975); cited from earlier work
# [4] = for % Dose Recovered, Feces / % Dose Recovered, Tissues and GI Tract (includes contents) / % Dose Recovered, Total Recovered / % Dose Recovered, VOCs / percent radioactivity remaining in all tissues, excluding GI tract / % Dose Recovered, CO2 / % Dose Recovered, Urine: female B6C3F1 mice, 24 h; for % Dose Recovered, CO2 / % Dose Recovered, Urine: listed as [^14C]DMAE
# [5] = female Wistar Han rats, gavage 500 mg/kg, 24 h
# [6] = male Wistar Han rats, IV 10 mg/kg, 24 h
# [7] = male Wistar Han rats, IV 10 mg/kg, 24 h, listed as [^14C]DMAE, 10 mg/kg
# [8] = male Wistar Han rats, gavage 10 mg/kg, 24 h
# [9] = male Wistar Han rats, gavage 10 mg/kg, 24 h, listed as [^14C]DMAE, 10 mg/kg
# [10] = male Wistar Han rats, gavage 100 mg/kg, 24 h
# [11] = male Wistar Han rats, gavage 500 mg/kg, 24 h
# [12] = male Wistar Han rats, gavage 500 mg/kg, 72 h
structure (smiles),measurement,setting,value
"CN(C)CCO [DMAE, Dimethylaminoethanol]",Estimated percentage of area of DMAE peak in urine chromatogram,"[1]; Mouse/Female, [^14C]DMAE 10 mg/kg",8%
same,Estimated percentage of area of DMAE peak in urine chromatogram,"[1]; Mouse/Female, [^14C]DMAE 100 mg/kg",82%
same,Estimated percentage of area of DMAE peak in urine chromatogram,"[1]; Mouse/Female, [^14C]DMAE 500 mg/kg",66%
same,Estimated percentage of area of DMAE peak in urine chromatogram,"[1]; Mouse/Male, [^14C]DMAE 500 mg/kg",100%
same,administered dose recovered in tissues (excluding GI tract),"Wistar Han rats, oral, 24 h post-exposure, range over groups",21–29%
same,"% Dose Recovered, Feces",[5],0.549 ± 0.147 % dose
same,"% Dose Recovered, Tissues and GI Tract (includes contents)",[5],27.4 ± 1.40 % dose
same,"% Dose Recovered, Total Recovered",[5],98.4 ± 0.800 % dose
same,"% Dose Recovered, VOCs",[5],0.818 ± 0.456 % dose
same,"% Dose Recovered, CO2","female Wistar Han rats, gavage 500 mg/kg, 24 h, listed as [^14C]DMAE, 500 mg/kg",6.09 ± 0.810 % dose
same,"% Dose Recovered, CO2",[6],3.52 ± 0.780 % dose
same,"% Dose Recovered, Feces",[6],0.330 ± 0.092 % dose
same,"% Dose Recovered, Tissues and GI Tract (includes contents)",[6],38.5 ± 2.30 % dose
same,"% Dose Recovered, VOCs",[6],0.230 ± 0.029 % dose
same,"% Dose Recovered, Urine","male Wistar Han rats, IV 10 mg/kg, 24 h, 10 mg/kg",39 % dose
same,"% Dose Recovered, Total Recovered",[7],82 % dose and 81.8 ± 7.10 % dose
same,"% Dose Recovered, Urine",[7],39.2 ± 7.80 % dose
same,"% Dose Recovered, CO2",[8],3.67 ± 0.440 % dose
same,"% Dose Recovered, Feces",[8],0.206 ± 0.242 % dose
same,"% Dose Recovered, Tissues and GI Tract (includes contents)",[8],33.9 ± 2.20 % dose
same,"% Dose Recovered, VOCs",[8],0.153 ± 0.037 % dose
same,"percent radioactivity remaining in all tissues, excluding GI tract",[8],~28%
same,"% Dose Recovered, Total Recovered",[9],95 % dose and 94.9 ± 3.20 % dose
same,"% Dose Recovered, Urine",[9],57.0 ± 4.10 % dose
same,"% Dose Recovered, CO2",[10],4.84 ± 0.700 % dose
same,"% Dose Recovered, Feces",[10],0.302 ± 0.061 % dose
same,"% Dose Recovered, Tissues and GI Tract (includes contents)",[10],30.1 ± 3.80 % dose
same,"% Dose Recovered, Total Recovered",[10],93.9 ± 2.90 % dose
same,"percent radioactivity remaining in all tissues, excluding GI tract",[10],~25%
same,"% Dose Recovered, Urine","male Wistar Han rats, gavage 100 mg/kg, 24 h, listed as [^14C]DMAE, 100 mg/kg",59 % dose and 58.6 ± 5.10 % dose
same,"% Dose Recovered, CO2",[11],4.78 ± 0.810 % dose
same,"% Dose Recovered, Feces",[11],0.518 ± 0.472 % dose
same,"% Dose Recovered, Tissues and GI Tract (includes contents)",[11],24.3 ± 2.10 % dose
same,"% Dose Recovered, Total Recovered",[11],92.1 ± 1.90 % dose
same,"% Dose Recovered, VOCs",[11],0.198 ± 0.038 % dose
same,"percent radioactivity remaining in all tissues, excluding GI tract",[11],~21%
same,"% Dose Recovered, Urine","male Wistar Han rats, gavage 500 mg/kg, 24 h, listed as [^14C]DMAE, 500 mg/kg",62 % dose and 62.1 ± 1.50 % dose
same,"% Dose Recovered, Feces",[12],1.11 ± 1.01 % dose
same,"% Dose Recovered, Tissues and GI Tract (includes contents)",[12],14.5 ± 1.20 % dose
same,"% Dose Recovered, Total Recovered",[12],92.0 ± 2.20 % dose
same,"% Dose Recovered, Urine",[12],68.6 ± 2.00 % dose
same,administered dose found as expired CO2,"male Wistar Han rats, gavage, all dose levels (10, 100, 500 mg/kg), 24 h",4–5%
same,total administered dose recovered,"male and female Wistar Han rats, oral administration, range over groups",92–98%
same,excretion in urine,"rats, gavage, range over groups",57–64%
same,excreted as exhaled CO2,"rats, range over groups",≤ 6%
same,Estimated percentage of area of DMAE peak in urine chromatogram,"[2]; Rat/Female, [^14C]DMAE 500 mg/kg, Oral",55%
same,Estimated percentage of area of DMAE peak in urine chromatogram,"[2]; Rat/Male, [^14C]DMAE 10 mg/kg, IV",3%
same,Estimated percentage of area of DMAE peak in urine chromatogram,"[2]; Rat/Male, [^14C]DMAE 10 mg/kg, Oral",95%
same,Estimated percentage of area of DMAE peak in urine chromatogram,"[2]; Rat/Male, [^14C]DMAE 100 mg/kg, Oral",56%
same,Estimated percentage of area of DMAE peak in urine chromatogram,"[2]; Rat/Male, [^14C]DMAE 500 mg/kg, Oral",34%
same,% of IV dose present in the plasma,[3],0.16%
same,administered dose recovered in tissues (excluding GI tract),"[4]; B6C3F1 mice, oral, 24 h post-exposure, range over groups",26–44%
same,"% Dose Recovered, Feces",[4]; gavage 10 mg/kg,1.94 ±0.490 % dose
same,"% Dose Recovered, Tissues and GI Tract (includes contents)",[4]; gavage 10 mg/kg,57.6 ± 3.00 % dose
same,"% Dose Recovered, Total Recovered",[4]; gavage 10 mg/kg,99.3 ± 1.60 % dose
same,"% Dose Recovered, VOCs",[4]; gavage 10 mg/kg,1.66 ± 0.340 % dose
same,"percent radioactivity remaining in all tissues, excluding GI tract",[4]; gavage 10 mg/kg,~44%
same,"% Dose Recovered, CO2","[4]; gavage 10 mg/kg, 10 mg/kg",22 % dose and 22.3 ± 3.68 % dose
same,"% Dose Recovered, Urine","[4]; gavage 10 mg/kg, 10 mg/kg",16 % dose and 15.8 ± 4.00 % dose
same,"% Dose Recovered, Feces",[4]; gavage 100 mg/kg,1.10 ± 0.410 % dose
same,"% Dose Recovered, Tissues and GI Tract (includes contents)",[4]; gavage 100 mg/kg,44.5 ± 1.70 % dose
same,"% Dose Recovered, Total Recovered",[4]; gavage 100 mg/kg,81.6 ± 4.40 % dose
same,"% Dose Recovered, VOCs",[4]; gavage 100 mg/kg,1.27 ± 0.160 % dose
same,"percent radioactivity remaining in all tissues, excluding GI tract",[4]; gavage 100 mg/kg,~30%
same,"% Dose Recovered, CO2","[4]; gavage 100 mg/kg, 100 mg/kg",16 % dose and 15.5 ± 0.600 % dose
same,"% Dose Recovered, Urine","[4]; gavage 100 mg/kg, 100 mg/kg",18 % dose and 17.9 ± 3.90 % dose
same,"% Dose Recovered, Feces",[4]; gavage 500 mg/kg,0.713 ± 0.273 % dose
same,"% Dose Recovered, Tissues and GI Tract (includes contents)",[4]; gavage 500 mg/kg,38.4 ± 16.1 % dose
same,"% Dose Recovered, Total Recovered",[4]; gavage 500 mg/kg,97.1 ± 15.2 % dose
same,"% Dose Recovered, VOCs",[4]; gavage 500 mg/kg,1.51 ± 0.210 % dose
same,"percent radioactivity remaining in all tissues, excluding GI tract",[4]; gavage 500 mg/kg,~32%
same,"% Dose Recovered, CO2","[4]; gavage 500 mg/kg, 500 mg/kg",13 % dose and 13.2 ± 1.80 % dose
